Results reported in patent US20250163104A1, “MACROCYCLIC IMMUNOMODULATORS” (priority 2021, published 2025).
Where a SMILES comes first, the peptide text is derived from it. Bridges are numbered along the chain shown (N, C = ends). [ ]: non-standard residue; d: D form. The star is where a group is joined. Ala(1-amidino-4-piperidyl) = N=C(N)N1CCC(C[C@H](N)C(=O)O)CC1; Ala(morpholin-4-yl) = N[C@@H](CN1CCOCC1)C(=O)O; Bip = N[C@@H](Cc1ccc(-c2ccccc2)cc1)C(=O)O; Phe(3-Me) = Cc1cccc(C[C@H](N)C(=O)O)c1; Ala(cPent) = N[C@@H](CC1CCCC1)C(=O)O; Val(3-OH) = CC(C)(O)[C@H](N)C(=O)O; 4Pal = N[C@@H](Cc1ccncc1)C(=O)O; Cha = N[C@@H](CC1CCCCC1)C(=O)O; Cit = NC(=O)NCCC[C@H](N)C(=O)O; dNle = CCCC[C@@H](N)C(=O)O; Carboxymethyl = O=C(O)C*; Orn = NCCC[C@H](N)C(=O)O; Pra = C#CC[C@H](N)C(=O)O; Dab = NCC[C@H](N)C(=O)O; Dap = NC[C@H](N)C(=O)O

The molecules below were run against T1, human PD-1 / PD-L1-Ig binding on Jurkat cell line over-expressing human PD-1 (Jurkat-PD-1) (Homo sapiens, UniProt Q15116) (assay: Jurkat-PD-1 Cell Binding High-Content Screening Assay (CBA)). Settings: Jurkat HPD1_PDL1 IC50, Jurkat-PD-1 cells, PE-labeled PD-L1-Ig 20 nM final.
T1 construct: expressed in transfected cells; host or cells: Jurkat
T1 sequence (Q15116 25-288): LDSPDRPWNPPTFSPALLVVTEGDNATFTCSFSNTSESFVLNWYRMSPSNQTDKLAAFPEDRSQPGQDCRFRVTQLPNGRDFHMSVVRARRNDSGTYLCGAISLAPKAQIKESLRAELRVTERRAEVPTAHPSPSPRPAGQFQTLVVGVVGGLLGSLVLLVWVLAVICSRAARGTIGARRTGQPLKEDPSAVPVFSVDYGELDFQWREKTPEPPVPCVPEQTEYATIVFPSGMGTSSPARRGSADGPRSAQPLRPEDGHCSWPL
Assay type: cell-based
Procedure, shortened: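 Jurkat cells over-expressing human PD-1, in DMEM/10% FCS, pre-incubated with compound 2 h at 37° C. PE-labeled human PD-L1-Ig (20 nM final) added for 1 h; cells fixed in paraformaldehyde with Hoechst 33342 nuclear stain, washed, and bound fluorescence quantified by high-content imaging.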

Row | SMILES | IC50 [nM]
1 | CC(C)C[C@@H]1NC(=O)[C@H](Cc2c[nH]c3ccccc23)NC(=O)[C@H](CC(=O)O)NC(=O)[C@H](Cc2ccc(OCC(=O)O)cc2)NC(=O)[C@H](CN)NC(=O)CSC[C@@H](C(=O)NCC(N)=O)NC(=O)[C@H](CO)NC(=O)[C@H](C(C)C)NC(=O)[C@H](CC2CCCCC2)NC(=O)[C@H](CC(N)=O)NC(=O)[C@@H](CC(C)C)NC(=O)[C@H](CCCN)NC(=O)[C@H](C(C)C)NC(=O)[C@H](Cc2ccc(-c3ccccc3)cc2)NC1=O [Compound 1336] ({CH2CO}-[Dap]Y(Carboxymethyl)DWL[Bip]V[Orn][dL]N[Cha]VSCG-NH2; thioether N-14) | 21.2
2 | CC(C)C[C@H]1NC(=O)[C@H](CCCN)NC(=O)[C@H](C(C)C)NC(=O)[C@H](Cc2ccc(-c3ccccc3)cc2)NC(=O)[C@H](CC2CCCC2)NC(=O)[C@H](Cc2c[nH]c3ccccc23)NC(=O)[C@H](CC(=O)O)NC(=O)[C@H](Cc2ccc(OCC(=O)O)cc2)NC(=O)[C@H](CN)NC(=O)CSC[C@@H](C(=O)N[C@@H](C)C(N)=O)NC(=O)[C@H]([C@@H](C)O)NC(=O)[C@H](C(C)C)NC(=O)[C@H](CC2CCCCC2)NC(=O)[C@H](CCN)NC1=O [Compound 1731] ({CH2CO}-[Dap]Y(Carboxymethyl)DW[Ala(cPent)][Bip]V[Orn][dL][Dab][Cha]VTCA-NH2; thioether N-14) | 13

Same assay, conditions: Jurkat-PD-1 cells, PE-labeled PD-L1-Ig 20 nM final; read-out: Jurkat HPD1_PDL1 IC50

Row | SMILES | IC50 [nM]
3 | CC(C)C[C@@H]1NC(=O)[C@H](Cc2c[nH]c3ccccc23)NC(=O)[C@H](CC(=O)O)NC(=O)[C@H](Cc2ccc(O)cc2)NC(=O)[C@H](Cc2ccccc2)NC(=O)CSC[C@@H](C(=O)NCC(N)=O)NC(=O)[C@H]([C@@H](C)O)NC(=O)[C@H](C(C)C)NC(=O)[C@H](CC(C)C)NC(=O)[C@H](CCN)NC(=O)[C@@H](C)NC(=O)[C@H](CCN)NC(=O)[C@H](C(C)C)NC(=O)[C@H](Cc2ccc(-c3ccccc3)cc2)NC1=O [Compound 1103] ({CH2CO}-FYDWL[Bip]V[Dab][dA][Dab]LVTCG-NH2; thioether N-14) | 112
4 | CC[C@H](C)[C@@H]1NC(=O)[C@H](Cc2ccc(-c3ccccc3)cc2)NC(=O)[C@H](C(C)C)NC(=O)[C@H](Cc2c[nH]c3ccccc23)NC(=O)[C@H](CC(=O)O)NC(=O)[C@H](Cc2ccc(O)cc2)NC(=O)[C@H](CC(N)=O)NC(=O)CSC[C@@H](C(=O)NCC(N)=O)NC(=O)[C@H](CO)NC(=O)[C@H](C(C)C)NC(=O)[C@H](CC(C)C)NC(=O)[C@H](CCN)NC(=O)[C@@H](CC(C)C)NC(=O)[C@H](CCCN)NC1=O [Compound 1121] ({CH2CO}-NYDWV[Bip]I[Orn][dL][Dab]LVSCG-NH2; thioether N-14) | 20.9
5 | CC(C)C[C@@H]1NC(=O)[C@H](CCN)NC(=O)[C@@H](CC(C)C)NC(=O)[C@H](CN)NC(=O)[C@H](CCCNC(=N)N)NC(=O)[C@H](Cc2ccc(-c3ccccc3)cc2)NC(=O)[C@H](C(C)C)NC(=O)[C@H](Cc2c[nH]c3ccccc23)NC(=O)[C@H](CC(=O)O)NC(=O)[C@H](Cc2ccc(O)cc2)NC(=O)[C@H](CC(N)=O)NC(=O)CSC[C@@H](C(=O)N[C@@H](C)C(N)=O)NC(=O)[C@H]([C@@H](C)O)NC(=O)[C@H](C(C)C)NC1=O [Compound 1009] ({CH2CO}-NYDWV[Bip]R[Dap][dL][Dab]LVTCA-NH2; thioether N-14) | 52.9
6 | CC(C)C[C@@H]1NC(=O)[C@H](CCN)NC(=O)[C@@H](CC(C)C)NC(=O)[C@H](CCCCN)NC(=O)[C@H](CCCNC(N)=O)NC(=O)[C@H](Cc2ccc(-c3ccccc3)cc2)NC(=O)[C@H](C(C)C)NC(=O)[C@H](Cc2c[nH]c3ccccc23)NC(=O)[C@H](CC(=O)O)NC(=O)[C@H](Cc2ccc(O)cc2)NC(=O)[C@H](CC(N)=O)NC(=O)CSC[C@@H](C(=O)N[C@@H](C)C(N)=O)NC(=O)[C@H]([C@@H](C)O)NC(=O)[C@H](C(C)C)NC1=O [Compound 1019] ({CH2CO}-NYDWV[Bip][Cit]K[dL][Dab]LVTCA-NH2; thioether N-14) | 20.6
7 | CC(C)C[C@@H]1NC(=O)[C@H](Cc2c[nH]c3ccccc23)NC(=O)[C@H](CC(=O)O)NC(=O)[C@H](Cc2ccc(O)cc2)NC(=O)[C@H](Cc2ccccc2)NC(=O)CSC[C@@H](C(=O)NCC(N)=O)NC(=O)[C@H](CO)NC(=O)[C@H](C(C)C)NC(=O)[C@H](CC(C)C)NC(=O)[C@H](CCN)NC(=O)[C@@H](CC(C)C)NC(=O)[C@H](CCCN)NC(=O)[C@H](C(C)C)NC(=O)[C@H](Cc2ccc(-c3ccccc3)cc2)NC1=O [Compound 1073] ({CH2CO}-FYDWL[Bip]V[Orn][dL][Dab]LVSCG-NH2; thioether N-14) | 10

The next lines start with the values.

Row | IC50 [nM] | SMILES
8 | 18.9 | C#CC[C@H](NC(=O)[C@H](CCN)NC(=O)[C@@H]1CSCC(=O)N[C@@H](CN2CCOCC2)C(=O)N[C@@H](Cc2ccc(OCC(=O)O)cc2)C(=O)N[C@@H](CC(=O)O)C(=O)N[C@@H](Cc2cccc(C)c2)C(=O)N[C@@H](Cc2ccc(OCC(=O)O)cc2)C(=O)N[C@@H](Cc2ccc(-c3ccccc3)cc2)C(=O)N[C@@H](Cc2ccc(OCC(=O)O)cc2)C(=O)N[C@@H](CCCN)C(=O)N[C@H](CC(C)C)C(=O)N[C@@H](CCN)C(=O)N[C@@H](CC2CCCCC2)C(=O)N[C@@H](C(C)(C)O)C(=O)N[C@@H](CO)C(=O)N1)C(N)=O [Compound 1852] ({CH2CO}-[Ala(morpholin-4-yl)]Y(Carboxymethyl)D[Phe(3-Me)]Y(Carboxymethyl)[Bip]Y(Carboxymethyl)[Orn][dL][Dab][Cha][Val(3-OH)]SC[Dab][Pra]-NH2; thioether N-14)
9 | 9.1 | CC[C@H](C)[C@@H]1NC(=O)[C@H](Cc2c[nH]c3ccccc23)NC(=O)[C@H](CC(=O)O)NC(=O)[C@H](Cc2ccc(OCC(=O)O)cc2)NC(=O)[C@H](CN)NC(=O)CSC[C@@H](C(=O)N[C@@H](C)C(N)=O)NC(=O)[C@H]([C@@H](C)O)NC(=O)[C@H](C(C)C)NC(=O)[C@H](CC2CCCCC2)NC(=O)[C@H](CCN)NC(=O)[C@@H](CC(C)C)NC(=O)[C@H](CCCN)NC(=O)[C@H](CCCNC(N)=O)NC(=O)[C@H](Cc2ccc(-c3ccccc3)cc2)NC1=O [Compound 1316] ({CH2CO}-[Dap]Y(Carboxymethyl)DWI[Bip][Cit][Orn][dL][Dab][Cha]VTCA-NH2; thioether N-14)
10 | 12.8 | CC[C@H](C)[C@@H]1NC(=O)[C@H](Cc2ccc(-c3ccccc3)cc2)NC(=O)[C@H](C(C)C)NC(=O)[C@H](Cc2cccc(C)c2)NC(=O)[C@H](CC(=O)O)NC(=O)[C@H](Cc2ccncc2)NC(=O)[C@H](Cc2ccc(OCC(=O)O)cc2)NC(=O)CSC[C@@H](C(=O)N[C@@H](C)C(N)=O)NC(=O)[C@H]([C@@H](C)O)NC(=O)[C@H](C(C)C)NC(=O)[C@H](CC2CCCCC2)NC(=O)[C@H](CCN)NC(=O)[C@@H](CC(C)C)NC(=O)[C@H](CCCN)NC1=O [Compound 1330]
11 | 912 | CC[C@H](C)[C@@H]1NC(=O)[C@H](CCN)NC(=O)[C@@H](CC(C)C)NC(=O)[C@H](CCCN)NC(=O)[C@H](CCCNC(N)=O)NC(=O)[C@H](Cc2ccc(-c3ccccc3)cc2)NC(=O)[C@H](C(C)C)NC(=O)[C@H](Cc2c[nH]c3ccccc23)NC(=O)[C@H](CC(=O)O)NC(=O)[C@H](Cc2ccc(OCC(=O)O)cc2)NC(=O)[C@H](CN)NC(=O)CSC[C@@H](C(=O)N[C@@H](C)C(N)=O)NC(=O)[C@H]([C@@H](C)O)NC(=O)[C@H](C(C)C)NC1=O [Compound 1317] ({CH2CO}-[Dap]Y(Carboxymethyl)DWV[Bip][Cit][Orn][dL][Dab]IVTCA-NH2; thioether N-14)
12 | 6 | CC(C)C[C@H]1NC(=O)[C@H](CCCN)NC(=O)[C@H](C(C)C)NC(=O)[C@H](Cc2ccc(-c3ccccc3)cc2)NC(=O)[C@H](C(C)C)NC(=O)[C@H](Cc2c[nH]c3ccccc23)NC(=O)[C@H](CC(=O)O)NC(=O)[C@H](Cc2ccncc2)NC(=O)[C@H](Cc2ccc(OCC(=O)O)cc2)NC(=O)CSC[C@@H](C(=O)N[C@@H](C)C(N)=O)NC(=O)[C@H]([C@@H](C)O)NC(=O)[C@H](C(C)C)NC(=O)[C@H](CC2CCCCC2)NC(=O)[C@H](CCN)NC1=O [Compound 1331]
13 | 25.2 | CCCC[C@H]1NC(=O)[C@H](CCCN)NC(=O)[C@H](CCC(=O)O)NC(=O)[C@H](Cc2ccc(-c3ccccc3)cc2)NC(=O)[C@H](C(C)C)NC(=O)[C@H](Cc2c[nH]c3ccccc23)NC(=O)[C@H](CC(=O)O)NC(=O)[C@H](Cc2ccncc2)NC(=O)[C@H](CN)NC(=O)CSC[C@@H](C(=O)N[C@@H](C)C(N)=O)NC(=O)[C@H]([C@@H](C)O)NC(=O)[C@H](C(C)C)NC(=O)[C@H](CC2CCCCC2)NC(=O)[C@H](CCN)NC1=O [Compound 1452] ({CH2CO}-[Dap][4Pal]DWV[Bip]E[Orn][dNle][Dab][Cha]VTCA-NH2; thioether N-14)
14 | 16.4 | CC(C)C[C@H]1NC(=O)[C@H](CCCN)NC(=O)[C@H](C(C)C)NC(=O)[C@H](Cc2ccc(-c3ccccc3)cc2)NC(=O)[C@H](C(C)C)NC(=O)[C@H](Cc2cccc(Cl)c2)NC(=O)[C@H](CC(=O)O)NC(=O)[C@H](Cc2ccc(C(=O)O)cc2)NC(=O)[C@H](Cc2ccc(OCC(=O)O)cc2)NC(=O)CSC[C@@H](C(=O)N[C@@H](C)C(N)=O)NC(=O)[C@H]([C@@H](C)O)NC(=O)[C@H](C(C)C)NC(=O)[C@H](CC2CCCCC2)NC(=O)[C@H](CCN)NC1=O [Compound 1569]
15 | 15.9 | CC(C)C[C@H]1NC(=O)[C@H](CCCN)NC(=O)[C@H](CCCNC(N)=O)NC(=O)[C@H](Cc2ccc(-c3ccccc3)cc2)NC(=O)[C@H](C(C)C)NC(=O)[C@H](Cc2c[nH]c3ccccc23)NC(=O)[C@H](CC(=O)O)NC(=O)[C@H](Cc2ccc(OCC(=O)O)cc2)NC(=O)[C@H](CC2CCN(C(=N)N)CC2)NC(=O)CSC[C@@H](C(=O)N[C@@H](C)C(N)=O)NC(=O)[C@H](CO)NC(=O)[C@H](C(C)C)NC(=O)[C@H](CC2CCCCC2)NC(=O)[C@H](CN)NC1=O [Compound 2504] ({CH2CO}-[Ala(1-amidino-4-piperidyl)]Y(Carboxymethyl)DWV[Bip][Cit][Orn][dL][Dap][Cha]VSCA-NH2; thioether N-14)
